Here are results for 20 molecules from ChEMBL document CHEMBL1201862, “PubChem BioAssay data set” (2004).

One may read the AC50 as the midpoint of the concentration-response curve, whichever way the signal moves. One may read the CC50 as the concentration giving 50% cytotoxicity. In general, IC50 refers to the concentration that inhibits the measured activity by half.

Activity calls are given as the source filed them.

The target of test [1] is T1, Replicative DNA helicase DnaB (Mycobacterium tuberculosis, UniProt P9WMR3).
T1 sequence (P9WMR3 whole entry): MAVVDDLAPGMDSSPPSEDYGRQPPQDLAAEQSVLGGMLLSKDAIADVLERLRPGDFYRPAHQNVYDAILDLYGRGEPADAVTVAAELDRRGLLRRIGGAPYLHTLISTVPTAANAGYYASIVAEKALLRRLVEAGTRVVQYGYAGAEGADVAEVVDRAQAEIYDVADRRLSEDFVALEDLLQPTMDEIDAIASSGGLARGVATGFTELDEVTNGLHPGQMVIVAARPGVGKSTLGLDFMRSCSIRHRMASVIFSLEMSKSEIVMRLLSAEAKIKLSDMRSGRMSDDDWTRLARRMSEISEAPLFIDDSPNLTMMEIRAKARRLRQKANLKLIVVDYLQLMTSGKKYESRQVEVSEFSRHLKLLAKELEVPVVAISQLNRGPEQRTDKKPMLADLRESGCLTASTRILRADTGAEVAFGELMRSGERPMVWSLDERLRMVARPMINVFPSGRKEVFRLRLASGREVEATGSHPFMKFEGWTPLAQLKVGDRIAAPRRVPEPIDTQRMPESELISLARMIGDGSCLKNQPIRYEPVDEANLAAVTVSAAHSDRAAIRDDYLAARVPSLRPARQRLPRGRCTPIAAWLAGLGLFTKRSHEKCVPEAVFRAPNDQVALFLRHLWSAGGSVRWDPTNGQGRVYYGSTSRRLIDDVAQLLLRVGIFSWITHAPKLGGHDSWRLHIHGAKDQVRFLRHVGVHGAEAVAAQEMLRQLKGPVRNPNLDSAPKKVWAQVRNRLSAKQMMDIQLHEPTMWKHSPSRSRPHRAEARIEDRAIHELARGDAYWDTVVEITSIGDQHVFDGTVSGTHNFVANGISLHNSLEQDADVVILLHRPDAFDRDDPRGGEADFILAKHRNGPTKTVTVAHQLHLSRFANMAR
Nature of the test: DnaB intein splicing inhibitors, dose response, biochemical, cell-free fluorescence (AID 449749). Format: functional.

Test [2] can be described thus: viability of uninfected HEp-2 cells – cell-based, HTS, cytotoxicity control for RSV inhibitor project, dose response (AID 2410). Format: functional. As to conditions: human respiratory syncytial virus.
Test [3] in a line: Trypanosoma cruzi growth suppression in host cells – NIH3T3 host cells, beta-gal luminescence, confirmation (AID 2044).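 Note: intracellular parasites grown in NIH/3T3 mouse fibroblasts as host cells; luminescent beta-galactosidase reporter signal from transgenic T. cruzi replicating inside host cells; inhibitors lower the luminescence signal.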 Format: functional, cell-based.
In test [4] the target is T2, Calpain-2 catalytic subunit (Sus scrofa, UniProt P43367).
T2 sequence (P43367 whole entry): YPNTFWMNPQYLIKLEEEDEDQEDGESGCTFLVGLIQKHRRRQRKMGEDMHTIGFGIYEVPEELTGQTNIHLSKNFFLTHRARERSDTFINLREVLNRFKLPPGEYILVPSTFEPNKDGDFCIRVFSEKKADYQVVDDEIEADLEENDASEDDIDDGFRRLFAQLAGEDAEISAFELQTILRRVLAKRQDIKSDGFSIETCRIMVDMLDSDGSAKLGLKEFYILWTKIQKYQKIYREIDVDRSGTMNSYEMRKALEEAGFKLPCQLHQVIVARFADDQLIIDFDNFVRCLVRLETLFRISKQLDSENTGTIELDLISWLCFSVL
Nature of the test: m-calpain protease blockers, concentration series – biochemical, fluorogenic peptide substrate, dose response (AID 1420). In kind it is functional.

Test [5] is described as follows: NIH3T3 cell viability loss – ATP luminescence, mouse fibroblasts, counter-screen, dose response (AID 2010).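 Note: cells exposed to compound for about 90 hours before reading.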 In kind it is functional, cell-based. A general note: The purpose of a counterscreen is to sort out artefacts and off-target activity.
Test [6] is described as follows: Luminescence Cell-Based Dose Retest to Confirm Inhibitors of Cancer Stem Cells. [Related pubchem assays (depositor defined):AID2717, AID2721]. Format: functional. As to conditions: Homo sapiens.
For test [7], the target named is T3, Ubiquitin-conjugating enzyme E2 N (Homo sapiens, UniProt P61088).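 Note: Dose-response confirmation in a TR-FRET assay detecting UBC13-driven polyubiquitin chain formation, inhibition measured.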
T3 sequence (P61088 whole entry): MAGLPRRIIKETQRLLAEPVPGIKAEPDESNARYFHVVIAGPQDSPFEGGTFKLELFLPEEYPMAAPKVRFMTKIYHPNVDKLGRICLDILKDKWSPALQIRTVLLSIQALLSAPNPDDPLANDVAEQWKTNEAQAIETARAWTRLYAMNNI
In kind it is functional.

Test [8] has as its target T4, Endoribonuclease toxin MazF (Escherichia coli K-12, UniProt P0AE70).
T4 sequence (P0AE70 whole entry): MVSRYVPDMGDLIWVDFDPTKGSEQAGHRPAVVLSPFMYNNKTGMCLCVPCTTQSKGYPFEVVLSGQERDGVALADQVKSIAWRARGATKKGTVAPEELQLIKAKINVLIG
Nature of the test: activation of MazEF endoribonuclease cleavage – biochemical, fluorescence, single-stranded RNA substrate, uHTS hits, dose response (AID 588481). In kind it is functional.

In test [9] the target is T4, Endoribonuclease toxin MazF. Kind of test: substrate-only fluorescence increase artefacts – biochemical, single-stranded RNase substrate, counter-screen for MazEF activator project, dose response (AID 588502). In kind it is functional.
A further test deals with T5, Protein RecA (Mycobacterium tuberculosis, UniProt P9WHJ3).
T5 sequence (P9WHJ3 whole entry): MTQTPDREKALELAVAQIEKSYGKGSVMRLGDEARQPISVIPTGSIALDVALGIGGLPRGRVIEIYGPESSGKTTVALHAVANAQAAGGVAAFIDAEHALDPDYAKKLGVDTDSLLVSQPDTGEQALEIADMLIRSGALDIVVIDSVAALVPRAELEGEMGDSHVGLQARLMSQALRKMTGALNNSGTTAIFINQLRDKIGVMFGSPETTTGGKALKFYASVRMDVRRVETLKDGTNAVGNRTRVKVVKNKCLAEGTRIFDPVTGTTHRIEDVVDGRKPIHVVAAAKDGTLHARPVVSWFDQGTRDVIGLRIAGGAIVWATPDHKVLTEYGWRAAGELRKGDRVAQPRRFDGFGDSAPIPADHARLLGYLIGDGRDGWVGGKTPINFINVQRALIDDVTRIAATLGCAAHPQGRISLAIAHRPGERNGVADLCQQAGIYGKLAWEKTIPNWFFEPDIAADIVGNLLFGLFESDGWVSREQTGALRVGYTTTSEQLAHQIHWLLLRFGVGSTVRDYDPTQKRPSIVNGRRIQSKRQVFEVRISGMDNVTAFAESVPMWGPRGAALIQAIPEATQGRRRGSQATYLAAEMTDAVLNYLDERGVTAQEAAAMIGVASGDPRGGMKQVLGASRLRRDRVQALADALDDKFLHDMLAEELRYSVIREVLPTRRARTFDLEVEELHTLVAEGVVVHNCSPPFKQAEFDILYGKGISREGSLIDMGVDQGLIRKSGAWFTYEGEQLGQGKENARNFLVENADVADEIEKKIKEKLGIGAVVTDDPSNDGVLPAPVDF
Kind of test: Fluorescence Cell-Free Homogeneous Dose Retest to Identify Inhibitors of RecA-Intein Splicing Activity. [Related pubchem assays (depositor defined):AID2097, AID2223, AID489010, AID492950]. In kind it is functional.

A further test deals with H9c2. Kind of test: cells. Format: functional, cell-based. The following applies: Rattus norvegicus, H9c2, Myocardium.
Test [10] deals with Induced myeloid leukemia cell differentiation protein Mcl-1 (Homo sapiens, UniProt Q07820). Format: functional.
Induced myeloid leukemia cell differentiation protein Mcl-1, sequence (Q07820 whole entry): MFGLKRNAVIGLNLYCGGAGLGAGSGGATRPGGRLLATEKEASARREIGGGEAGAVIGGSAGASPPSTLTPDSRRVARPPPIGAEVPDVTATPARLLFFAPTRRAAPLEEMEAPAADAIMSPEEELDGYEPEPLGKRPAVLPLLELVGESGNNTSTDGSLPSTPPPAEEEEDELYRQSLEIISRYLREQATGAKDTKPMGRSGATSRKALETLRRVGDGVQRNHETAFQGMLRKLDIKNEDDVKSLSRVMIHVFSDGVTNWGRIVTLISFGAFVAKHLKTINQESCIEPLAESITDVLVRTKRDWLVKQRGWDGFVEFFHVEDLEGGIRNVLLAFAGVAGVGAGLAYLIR
Test [11] addresses T6, Corticotropin-releasing factor receptor 2/Corticotropin-releasing factor-binding protein (Homo sapiens, UniProt P24387+Q13324).
T6 sequence (Q13324 whole entry): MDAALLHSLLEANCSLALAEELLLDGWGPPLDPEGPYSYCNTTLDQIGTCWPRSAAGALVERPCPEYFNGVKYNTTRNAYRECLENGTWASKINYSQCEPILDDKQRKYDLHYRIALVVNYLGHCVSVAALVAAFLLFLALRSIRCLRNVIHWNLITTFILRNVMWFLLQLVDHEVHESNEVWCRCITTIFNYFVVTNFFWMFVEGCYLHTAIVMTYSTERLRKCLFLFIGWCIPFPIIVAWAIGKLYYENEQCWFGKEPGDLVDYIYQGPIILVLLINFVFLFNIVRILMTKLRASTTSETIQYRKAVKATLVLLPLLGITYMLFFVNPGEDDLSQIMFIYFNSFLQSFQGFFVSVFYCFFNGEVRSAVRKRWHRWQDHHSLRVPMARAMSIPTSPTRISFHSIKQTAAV
T6 sequence (P24387 whole entry): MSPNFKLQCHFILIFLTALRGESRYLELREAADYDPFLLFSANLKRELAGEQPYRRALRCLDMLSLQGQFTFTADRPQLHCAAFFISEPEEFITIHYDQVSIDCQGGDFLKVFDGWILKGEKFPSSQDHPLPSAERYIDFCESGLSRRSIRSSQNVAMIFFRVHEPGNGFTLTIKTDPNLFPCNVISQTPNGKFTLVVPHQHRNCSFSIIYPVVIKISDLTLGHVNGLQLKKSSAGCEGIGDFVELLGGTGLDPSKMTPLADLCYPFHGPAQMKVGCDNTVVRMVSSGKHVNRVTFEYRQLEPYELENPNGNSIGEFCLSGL
Nature of the test: activators of CRF receptor 2 with binding protein – uHTS hits, confirmation (AID 602473). Format: functional. As to conditions: read-out: EC50_Mean.

As to `COc1ccccc1NC(=O)C1=C(C)Nc2nnnn2C1c1ccncc1` (stereo not drawn), in [1], the AC50 was 21.2 µM (inconclusive).

`CCCCN(CC)S(=O)(=O)c1ccc(C(=O)N(CCCN(C)C)c2nc3cc(C)cc(C)c3s2)cc1`: the CC50 in [2] was 14.9 µM (active). The EC50 in [3] was 227 nM (active); in [5] it was 9.54 µM (active). The results for the IC50 in test [4] and in [7] were 8.03 µM (not active) and > 20 µM (inactive), respectively. The AC50 in test [6] was 6.96 µM (active).

As for `CCN1C(=S)SC(=O)C1=C1C=C(C)OC(C)=C1`, the EC50 in [8] and in [9] was > 99 µM (inactive) throughout.

`CCOc1ccc(S(=O)(=O)NCc2cccnc2)cc1C`: the AC50 in test [1] is > 380 µM (inactive). The EC50 at Protein RecA is > 380 µM (inactive).

Turning to `O=c1cc(CSc2nc(O)c3ccccc3n2)c2ccc(O)cc2o1`, in the test with H9c2, the IC50 was > 79 µM (inactive).

In the case of `CN(C)c1ccc(NC(=O)c2ccc([N+](=O)[O-])cc2Cl)cc1`, the IC50 in test [10] is given as 1.11 µM (not active).

For `CCN1C(=O)[C@H]2[C@@H](c3ccc(-c4ccc(C(C)=O)cc4)cc3)N[C@@](C)(C(=O)OC)[C@H]2C1=O`, the IC50 in the test on H9c2 was > 79 µM (inactive).

For the molecule `CC(C)COCC(CN(Cc1ccccc1)c1ccccc1)N1CCCC1` (stereo not drawn), the IC50 in test [7] is > 20 µM (inactive).

For the molecule `O=C(CCc1nc(O)c2ccccc2n1)OCc1nnc(-c2ccccc2)o1`, the IC50 with H9c2 was 13 µM (active).

Regarding `Cn1cccc1/C=C1\SC(=O)N(c2ccccc2)C1=O`, the EC50 is > 99 µM (inactive) in test [8] and 32 µM (inactive) in [9].

Regarding `CSc1nc(O)c2c3c(sc2n1)CCC3`, the IC50 in the test with H9c2 is > 79 µM (inactive).

As to `CC(C)(C)OC(=O)NCc1ccc(NC(=O)c2[nH]cnc2C(=O)NCCCCCCNC(=O)c2nc[nH]c2C(=O)Nc2ccc(CNC(=O)OC(C)(C)C)cc2)cc1`, in the test on H9c2, the IC50 is > 79 µM (inactive).

Regarding `COc1ccc(-c2noc(CCC(=O)NCC3CCN(Cc4cccc(C)c4)CC3)n2)cc1`, the IC50 in test [7] is > 20 µM (inactive).

In the case of `Cc1cccc2cc(/C=N/NC(=O)c3ccccc3O)c(Cl)nc12`, the 50% inhibitory concentration (IC50) in test [10] is 5.52 µM (active). Besides, the EC50 in test [11] is > 53 µM (inactive).

As for `CCN(CC)CCn1c(=O)n(-c2ccc(Cl)cc2)c(=O)c2c3c(sc21)CN(C)CC3`, the EC50 in [8] and in test [9] was > 99 µM (inactive) in each case.

Take `CC1(C)CC2=Nc3nn(-c4ccccc4)c(O)c3C(c3ccc4c(c3)OCO4)C2=C(O)C1` (stereo not drawn): the AC50 in [1] was 66.1 µM (active). In addition, at Protein RecA, the EC50 was 24 µM (active).

For `Cc1ccc(S[C@@H](CCN2CC[C@H](C)CCC2=O)c2ccccc2)cc1`, in test [1], the AC50 was 5.34 µM (active). For the same molecule, the EC50 on Protein RecA is 17.6 µM (active).

For `N#C/C(=C\Nc1ccc2c(c1)OCCO2)c1nc2ccccc2[nH]1`, in test [2], the CC50 is 21.4 µM (active). The IC50 in the test on H9c2 is > 79 µM (inactive).

Take `CC(NC(=O)c1cc2c(=O)n(C)c3ccccc3c2n1C)c1ccc2c(c1)OCCO2` (stereo not drawn): the IC50 with H9c2 is > 79 µM (inactive).

`Cc1ccc(NS(=O)(=O)c2cc(-c3nnc(O)c4ccccc34)ccc2C)cc1`: the IC50 with H9c2 is 14.7 µM (active).
